Experimental data published in patent US12338256B2, “Aza-tetracyclic oxazepine compounds and uses thereof” (Genentech, Inc., priority 2022, dated 2025).

Assays:
[1] = test system: AsPC-1 (homozygous mutant KRAS G12D human pancreatic cell line); experiment: KRAS 3D-Cell Proliferation Assay, AsPC-1 (Example 503); type: cell-based; conditions: Homo sapiens, ASPC1, 168 h, AsPC-1 3D culture, 7 days, CellTiter-Glo 3D; read-out: Prolif AsPC-1 3D ATP IC50
In short: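 Luminescent ATP readout (CellTiter-Glo 3D, with mechanical mixing) measures growth of cells cultured in 3D after a 7-day compound exposure at 37° C. Percent inhibition is referenced to vehicle (DMSO) and 1 μM staurosporine controls, and IC50 comes from a four-parameter Hill fit.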

[2] = test system: PC-9 (KRAS wild type human lung adenocarcinoma cell line); experiment: KRAS 3D-Cell Proliferation Assay, PC-9 (Example 503); type: cell-based; conditions: 168 h, PC-9 3D culture, 7 days, CellTiter-Glo 3D, read-out: Prolif PC9 3D ATP IC50
Description: Example 503: KRAS 3D-Cell Proliferation Assays. Cellular potencies of compounds are assessed by evaluating inhibition of proliferation in 3D cultures of homozygous mutant KRAS G12D human pancreatic cell lines (AsPC-1 and HPAC) as compared to a KRAS wild type human lung adenocarcinoma cell line (PC-9 and/or H1975). Cells are seeded into 384-well black round-bottom, ultra-low attachment assay plates in 50 uL cell growth medium (RPMI-1640 with 10% fetal bovine serum and 2 mM L-glutamine). After overnight incubation at 37° C. and 5% CO2, compounds solubilized in DMSO are added as dilution series to the wells in a total volume of 150 nL (0.3% DMSO final). The cells are incubated for 7 days at 37° C. and 5% CO2. Cell proliferation is quantitated by addition of 40 uL/well of CellTiter-GloÒ 3D (Promega), and the well contents are mixed 20× at high speed using liquid handling automation workstation (Bravo with 384-well head) and centrifuged at 1500 rpm for 2 minutes to eliminate bubbles. This reagent in combination with mechanical disruption releases the cellular ATP to promote activity in a luciferase-based enzyme/substrate chemiluminescent detection system. After a 30-minute incubation under ambient conditions with shaking and an additional 10 minutes without shaking, the luminescence is read on a plate reader (e.g., EnVision [PerkinElmer]). The results are normalized to percent inhibition based on the following control samples: DMSO (0% inhibition) and 1 μM staurosporine (100% inhibition). The normalized luminescence results are plotted against compound concentration, and the data are fit to a 4-parameter Hill equation to determine the IC50 values.

Compound	IC50 [1] [µM]	IC50 [2] [µM]
Cn1ncc2ccc(F)c(-c3nc4c5c(nc(OC[C@@]67CCCN6C[C@H](F)C7)nc5c3F)N3C[C@H]5CC[C@H](N5)[C@H]3CO4)c21 [Compound 4, (5aS,6S,9R)-1-fluoro-2-(6-fluoro-1-methyl-1H-indazol-7-yl)-12-(((2R,7aS)-2-fluorotetrahydro-1H-pyrrolizin-7a(5H)-yl)methoxy)-5a,6,7,8,9,10-hexahydro-5H-4-oxa-3,10a,11,13,14-pentaaza-6,9-methanonaphtho[1,8-ab]heptalene]	9.75	13.3
C[C@@H]1Oc2nc(-c3cccc(N)c3F)c(F)c3nc(OC[C@@]45CCCN4C[C@H](F)C5)nc(c23)N2C[C@H]3CC[C@H](N3)[C@@H]12 [Compound 12, 2-fluoro-3-((5S,5aS,6S,9R)-1-fluoro-12-(((2R,7aS)-2-fluorotetrahydro-1H-pyrrolizin-7a(5H)-yl)methoxy)-5-methyl-5a,6,7,8,9,10-hexahydro-5H-4-oxa-3,10a,11,13,14-pentaaza-6,9-methanonaphtho[1,8-ab]heptalen-2-yl)aniline]	16.6	13.9
Cc1cc(-c2nc3c4c(nc(OC[C@@]56CCCN5C[C@H](F)C6)nc4c2F)N2C[C@H]4CC[C@H](N4)[C@H]2[C@H](C)O3)cc(N)c1F [Compound 13, 2-fluoro-5-((5S,5aS,6S,9R)-1-fluoro-12-(((2R,7aS)-2-fluorotetrahydro-1H-pyrrolizin-7a(5H)-yl)methoxy)-5-methyl-5a,6,7,8,9,10-hexahydro-5H-4-oxa-3,10a,11,13,14-pentaaza-6,9-methanonaphtho[1,8-ab]heptalen-2-yl)-3-methylaniline]	1.87	3.53
C[C@@H]1Oc2nc(-c3cc(N)c(F)c(F)c3C(F)(F)F)c(F)c3nc(OC[C@@]45CCCN4C[C@H](F)C5)nc(c23)N2C[C@H]3CC[C@H](N3)[C@@H]12 [Compound 15, 2,3-difluoro-5-((5S,5aS,6S,9R)-1-fluoro-12-(((2R,7aS)-2-fluorotetrahydro-1H-pyrrolizin-7a(5H)-yl)methoxy)-5-methyl-5a,6,7,8,9,10-hexahydro-5H-4-oxa-3,10a,11,13,14-pentaaza-6,9-methanonaphtho[1,8-ab]heptalen-2-yl)-4-(trifluoromethyl)aniline]	0.00157	2.9
Cc1c(F)c(N)cc(-c2nc3c4c(nc(OC[C@@]56CCCN5C[C@H](OCc5ccc(-c7ccccc7C#N)cc5)C6)nc4c2F)N2C[C@H]4CC[C@H](N4)[C@H]2[C@H](C)O3)c1C(F)(F)F [Compound 32, 4′-((((2R,7aS)-7a-((((5S,5aS,6S,9R)-2-(5-amino-4-fluoro-3-methyl-2-(trifluoromethyl)phenyl)-1-fluoro-5-methyl-5a,6,7,8,9,10-hexahydro-5H-4-oxa-3,10a,11,13,14-pentaaza-6,9-methanonaphtho[1,8-ab]heptalen-12-yl)oxy)methyl)hexahydro-1H-pyrrolizin-2-yl)oxy)methyl)-[1,1′-biphenyl]-2-carbonitrile]	0.00338	0.821
C[C@@H]1Oc2nc(-c3nc(N)cc4ccccc34)c(F)c3nc(OC[C@@]45CCCN4C[C@H](F)C5)nc(c23)N2C[C@H]3CC[C@H](N3)[C@@H]12 [Compound 41, 1-((5S,5aS,6S,9R)-1-fluoro-12-(((2R,7aS)-2-fluorotetrahydro-1H-pyrrolizin-7a(5H)-yl)methoxy)-5-methyl-5a,6,7,8,9,10-hexahydro-5H-4-oxa-3,10a,11,13,14-pentaaza-6,9-methanonaphtho[1,8-ab]heptalen-2-yl)isoquinolin-3-amine]	0.98	≥ 20
Cc1cc(N)nc(-c2nc3c4c(nc(OC[C@@]56CCCN5CC5(CC5(F)F)C6)nc4c2F)N2C[C@H]4CC[C@H](N4)[C@H]2CO3)c1C(F)(F)F (stereo partly drawn) [Compound 42, 6-((5aS,6S,9R)-12-(((7a′S)-2,2-difluorodihydro-1′H,3′H-spiro[cyclopropane-1,2′-pyrrolizin]-7a′(5′H)-yl)methoxy)-1-fluoro-5a,6,7,8,9,10-hexahydro-5H-4-oxa-3,10a,11,13,14-pentaaza[6,9]methanonaphtho[1,8-ab]heptalen-2-yl)-4-methyl-5-(trifluoromethyl)pyridin-2-amine]	0.122	7.04
Cc1cc(N)nc(-c2nc3c4c(nc(OC[C@@]56CCCN5C[C@H](F)C6)nc4c2F)N2C[C@H]4CC[C@H](N4)[C@H]2CO3)c1C(F)(F)F [Compound 44, 6-((5aS,6S,9R)-1-fluoro-12-(((2R,7aS)-2-fluorotetrahydro-1H-pyrrolizin-7a(5H)-yl)methoxy)-5a,6,7,8,9,10-hexahydro-5H-4-oxa-3,10a,11,13,14-pentaaza-6,9-methanonaphtho[1,8-ab]heptalen-2-yl)-4-methyl-5-(trifluoromethyl)pyridin-2-amine]	0.337	≥ 20
C#Cc1c(F)ccc2cccc(-c3nc4c5c(ncnc5c3F)N3C[C@H]5CC[C@H](N5)[C@H]3[C@H](C)O4)c12 [Compound 56, (5S,5aS,6S,9R)-2-(8-ethynyl-7-fluoronaphthalen-1-yl)-1-fluoro-5-methyl-5a,6,7,8,9,10-hexahydro-5H-4-oxa-3,10a,11,13,14-pentaaza-6,9-methanonaphtho[1,8-ab]heptalene]	5.74	≥ 20
C[C@@H]1Oc2nc(-c3cc(N)c(F)cc3C(F)(F)F)c(F)c3nc(OC[C@]45CCN4CC(F)(F)C5)nc(c23)N2C[C@H]3CC[C@H](N3)[C@@H]12 [Compound 71, 5-((5S,5aS,6S,9R)-12-(((R)-3,3-Difluoro-1-azabicyclo[3.2.0]heptan-5-yl)methoxy)-1-fluoro-5-methyl-5a,6,7,8,9,10-hexahydro-5H-4-oxa-3,10a,11,13,14-pentaaza-6,9-methanonaphtho[1,8-ab]heptalen-2-yl)-2-fluoro-4-(trifluoromethyl)aniline]	0.132	≥ 20
C[C@@H]1Oc2nc(-c3cnccc3C(F)(F)F)c(F)c3nc(OC[C@]45CCN4CC(F)(F)C5)nc(c23)N2C[C@H]3CC[C@H](N3)[C@@H]12 [Compound 78, (5S,5aS,6S,9R)-12-(((R)-3,3-Difluoro-1-azabicyclo[3.2.0]heptan-5-yl)methoxy)-1-fluoro-5-methyl-2-(4-(trifluoromethyl)pyridin-3-yl)-5a,6,7,8,9,10-hexahydro-5H-4-oxa-3,10a,11,13,14-pentaaza-6,9-methanonaphtho[1,8-ab]heptalene]	15.9	≥ 20
C[C@@H]1Oc2nc(-c3nc(N)c(F)cc3C(F)(F)F)c(F)c3nc(OC[C@@]45CCCN4C[C@H](F)C5)nc(c23)N2C[C@H]3CC[C@H](N3)[C@@H]12 [Compound 84, 3-Fluoro-6-((5S,5aS,6S,9R)-1-fluoro-12-(((2R,7aS)-2-fluorotetrahydro-1H-pyrrolizin-7a(5H)-yl)methoxy)-5-methyl-5a,6,7,8,9,10-hexahydro-5H-4-oxa-3,10a,11,13,14-pentaaza-6,9-methanonaphtho[1,8-ab]heptalen-2-yl)-5-(trifluoromethyl)pyridin-2-amine]	1.16	≥ 20
C[C@@H]1Oc2nc(-c3nc(N)ccc3C(F)(F)F)c(F)c3nc(OC[C@@]45CCCN4C[C@H](F)C5)nc(c23)N2C[C@H]3CC[C@H](N3)[C@@H]12 [Compound 85, 6-((5S,5aS,6S,9R)-1-fluoro-12-(((2R,7aS)-2-fluorotetrahydro-1H-pyrrolizin-7a(5H)-yl)methoxy)-5-methyl-5a,6,7,8,9,10-hexahydro-5H-4-oxa-3,10a,11,13,14-pentaaza-6,9-methanonaphtho[1,8-ab]heptalen-2-yl)-5-(trifluoromethyl)pyridin-2-amine]	0.975	≥ 20
